The source of these data is patent US5994361A, “Substituted purinyl derivatives with immunomodulating activity” (priority 1995, dated 1999).

Data set [1] relates to blood cells. Nature of the data set: Immunophenotyping on blood cells, combination with 5 Fluorouracil. It is filed as in vivo, C57/BLJ6 mice. The following applies: 5 FU 80 mg/kg alone, N = 4. As for the experimental part:
(§1) After in vivo drugs analysis, the drugs were evaluated on whole blood for drug stability and toxicity. Furthermore, in vivo/ex vivo analysis was performed on normal and cyclophosphamide immunosuppressed animals plus 5Fu-treated animals. Cell immunophenotyping was performed on mouse-treatedblood and spleen. The following cell surface antigens were analyzed:
(§2) CD3 (all T cells), CD4 (T helper/inducer, binds class II-restricted T cells), CD8a (cytotoxic T cells, CTL adhesion), CD11a (T, B, NK, some stem cells, CTL adhesion anti LFA-1α), MAC-1 (monocyte/macrophage), NK (natural killer cells), Ly5 (B cells), CD45 (all leukocytes, protein tyrosine phosphates), and TCR (T cell receptor).
(§3) C57/BLJ6 mice (6-8 weeks old) were injected daily for 4 consecutive days, sacrificed at day 5 and immunophenotyping was performed on blood and spleen cells.
(§4) The cells were washed twice in PBS, resuspended in 1 ml of RPMI 2% FBS, and incubated for 45 min. on ice with monoclonal antibody. The cells were washed once, fixed with 1% paraformaldehyde, then analyzed using XL Coulter® counter.

In data set [2] the test system is spleen cells. Nature of the data set: Immunophenotyping on spleen cells, combination with 5 Fluorouracil. Format: in vivo, C57/BLJ6 mice. The following applies: 5 FU 80 mg/kg alone, N = 4. As for the experimental part:
as §1, §2, §3, §4

Data set [3] relates to MC38 colon adenocarcinoma. Nature of the data set: Compound #1 with 5FU against colon adenocarcinoma (Example 95). Format: in vivo, C57/BL mice. Here is the method: C57/BL mice 6-8 weeks old (n=7-9/gr) were injected with 3×10^5 MC38 colon adenocarcinoma cells s.c. on day 0. On day 7, tumor-bearing mice were randomized and injected with 5FU at 20 mg/kg either alone or in combination with levamisole at 20 mg/kg i.p. or with compound #1 at 25 and 50 mg/kg i.p. over a four week period. During this period, animals were treated for 5 consecutive days, untreated for 2 days, and treated again for 5 consecutive days per week for 4 weeks.

Data set [4] deals with virus. The following applies: cited from earlier work.
Data set [5] deals with immune system. The settings on record: prior art; cited from earlier work.
The conditions of data set [6]: cited from earlier work.
Data set [7] concerns blood cells. Nature of the data set: Immunophenotyping on blood cells, combination with cyclophosphamide. Format: in vivo, C57/BLJ6 mice. The following applies: cyclophosphamide 100 mg/kg alone, N = 4. As for the experimental part:
as §1, §2, §3, §4

The subject of data set [8] is DA-3 mammary carcinoma. In words: Tumor outgrowth of breast carcinoma, with cyclophosphamide (Example 92). Format: in vivo, Balb/C mice. The following applies: CY 100 mg/kg. As for the experimental part: Balb/C Mice (n-5/Gr) were used along with DA-3 mammary carcinoma cell line. The mice were treated from -2 to 13 days. Animals were monitored for tumor takes/tumor size and body weights for three weeks from Day 0 until Day 21. D0 was the day of tumor cell inoculation and D21 was the day of experiment termination.
(§5) Parameters of effect were measured by inhibition of tumor outgrowth and growth rate [tumors measured along the longest axis (length) and the perpendicular shortest axis (width) and the tumor volumes (T.V.±S.E.) was calculated by the formula T.V.=length (cm)×(width cm)^2 /2.] assessment of body weight loss.
The statistical significance of difference between tumor takes and tumor sizes of control-untreated and drug-treated groups is estimated using the Chi-square and Student's t tests respectively with significance determined at n<0.05.
The mice were divided into the following 5 groups:
Gr.1--Normal Saline (0.2 ml/mouse i.p. starting at D2)
Gr.2--CY (100 mg/kg single bolus i.v. at D0)
Gr.3--Compound #1 (25 mg/kg i.p. starting at D2)
Gr.4--Compound #1 (50 mg/kg i.p. starting at D2)
Gr.5--CY (100 mg/kg i.v. at D0+compound #1 50 mg/kg i.p. starting at D2)

Data set [9] has as its system DA-3 mammary carcinoma. In words: Compound #1 with Cytoxan 28 mg/kg against DA-3 mammary carcinoma, tumor sizes (Example 94). It is filed as in vivo, Balb/c mice. Further details: key: tumor volume = length × width²/2. As for the experimental part:
as §5
(§6) In another experiment, the CTX treatment was prolonged. Balb/c mice were injected s.c. with 5×10^5 DA-3 tumor cells at day 0. At day 4 when established tumors appeared, tumor-bearing animals were randomized (n=11/gr.) and injected with CTX (at 28 mg/kg) i.v. bolus injections at days 4, 11, and 18. […]

Data set [10] can be described thus: Body weight, compound #1 with Cytoxan 28 mg/kg (Example 94). Format: in vivo, Balb/c mice. On the set-up: body weight: unit not given here. As for the experimental part:
as §6

Setting [11] is: single agent (CTX 28 mg/kg days 4, 11, 18, or BCH-1393 50 mg/kg days 3-28), day 4.
Setting [12] is: single agent (CTX 28 mg/kg or BCH-1393 50 mg/kg), day 7.
The mark [13] stands for this setting: single agent (CTX 28 mg/kg or BCH-1393 50 mg/kg), day 9.
The mark [14] stands for this setting: single agent (CTX 28 mg/kg or BCH-1393 50 mg/kg), day 11.
[15] abbreviates: single agent (CTX 28 mg/kg or BCH-1393 50 mg/kg), day 14.
The mark [16] stands for this setting: single agent (CTX 28 mg/kg or BCH-1393 50 mg/kg), day 16.
[17] abbreviates: single agent (CTX 28 mg/kg or BCH-1393 50 mg/kg), day 18.
The mark [18] stands for this setting: single agent (CTX 28 mg/kg or BCH-1393 50 mg/kg), day 21.
[19] abbreviates: single agent (CTX 28 mg/kg or BCH-1393 50 mg/kg), day 23.
Setting [20] is: single agent (CTX 28 mg/kg or BCH-1393 50 mg/kg), day 25.
The mark [21] stands for this setting: single agent (CTX 28 mg/kg or BCH-1393 50 mg/kg), day 28.
The mark [22] stands for this setting: single agent (CTX 28 mg/kg or BCH-1393 50 mg/kg), day 30.

Regarding `O=c1[nH]cc(F)c(=O)[nH]1` [5 FU, 5-fluorouracil, reference compound], in data set [1], the “CD8+ CD45+ (mean)” value is reported as 6.66 and the “NK+ (mean)” value is reported as 3.24. Besides, in data set [2], the “CD4+ CD45- (mean)” value came out at 10.0 and the “NK+ (mean)” value is 4.22. Moreover, the anti-tumor response entry in data set [3] (5FU 20 mg/kg alone) was “moderate anti-tumor response”.
On to `Nc1nc2c(ccn2[C@@H]2O[C@H](CO)[C@@H](O)[C@H]2O)c(=O)[nH]1` [7-deazaguanosine], for which the “immunostimulatory and antiviral activity” value in [4] (after oral administration, preliminary) was “significant immunostimulatory and antiviral activity after oral administration”.
With `Nc1nc2c(sc(=O)n2[C@@H]2O[C@H](CO)[C@@H](O)[C@H]2O)c(=O)[nH]1` [7-thia-8-oxoguanosine], in data set [5], the immunomodulating activity entry is “activate NK and B cells in the immune system, and to induce interferon”. For the same compound, the antiviral results in [4] (humans) is “few encouraging results”. In data set [6], the oral bioavailability entry was “lack of oral bioavailability”.
Consider `c1ccc([C@H]2CN3CCSC3=N2)cc1` [Levamisole, levamisole], for which, in [3] (5FU 20 mg/kg plus Levamisole 20 mg/kg), the anti-tumor response entry was “moderate anti-tumor response”. In [6] (adjuvant levamisole therapy for malignant melanoma), the adverse effect result is recorded as “induces serious thrombocytopenia”.
Consider `O=P1(N(CCCl)CCCl)NCCCO1` (stereo not shown) [cyclophosphamide, reference compound], for which the “CP8+ CD45+ (mean)” value in data set [7] worked out at 15.05. Further, the Tumor takes in data set [8] (day 4), in [8] (day 6), in [8] (day 8) and in data set [8] (day 10) was 5/5 in each case. Further, the tumor size stood at 4.2 in data set [9] (setting [11]); 10.5 in [9] (setting [12]); 18.6 in [9] (setting [13]); 30.7 in data set [9] (setting [14]); 50.6 in data set [9] (setting [15]); 54.5 in [9] (setting [16]). The tumor size in data set [9] (setting [17]) came out at 63.4; in data set [9] (setting [18]), 88.5; in data set [9] (setting [19]) it was 93.4; in [9] (setting [20]) it was 106.3; in data set [9] (setting [21]), 130.9; in data set [9] (setting [22]), 151.6. For the same compound, the body weight stood at 19.2 in [10] (setting [11]); 19.8 in data set [10] (setting [12]); 19.8 in [10] (setting [13]); 19.9 in data set [10] (setting [14]); 19.2 in data set [10] (setting [15]); 19.7 in [10] (setting [16]). Moreover, the body weight is given as 19.6 in data set [10] (setting [17]); 19.8 in [10] (setting [18]); 19.7 in [10] (setting [19]); 20.1 in data set [10] (setting [20]); 20.3 in data set [10] (setting [21]); 20.4 in [10] (setting [22]).
